# In ChEMBL document CHEMBL1201862, “PubChem BioAssay data set” (2004):
# Active and inactive are the calls of the source.
# What was measured:
# [1] = target: Eukaryotic translation initiation factor 4H (Homo sapiens, UniProt Q15056); experiment: human eIF4H binding inhibitors, primary screen, translation initiation inhibitor project, biochemical, uHTS, fluorescence polarization (AID 2012)
# [2] = target: Polyadenylate-binding protein 1 (Homo sapiens, UniProt P11940); experiment: PABP poly(A) RNA binding inhibitors, primary screen, biochemical, fluorescence polarization, uHTS (AID 2014)
# Chain of Polyadenylate-binding protein 1 (P11940 whole entry): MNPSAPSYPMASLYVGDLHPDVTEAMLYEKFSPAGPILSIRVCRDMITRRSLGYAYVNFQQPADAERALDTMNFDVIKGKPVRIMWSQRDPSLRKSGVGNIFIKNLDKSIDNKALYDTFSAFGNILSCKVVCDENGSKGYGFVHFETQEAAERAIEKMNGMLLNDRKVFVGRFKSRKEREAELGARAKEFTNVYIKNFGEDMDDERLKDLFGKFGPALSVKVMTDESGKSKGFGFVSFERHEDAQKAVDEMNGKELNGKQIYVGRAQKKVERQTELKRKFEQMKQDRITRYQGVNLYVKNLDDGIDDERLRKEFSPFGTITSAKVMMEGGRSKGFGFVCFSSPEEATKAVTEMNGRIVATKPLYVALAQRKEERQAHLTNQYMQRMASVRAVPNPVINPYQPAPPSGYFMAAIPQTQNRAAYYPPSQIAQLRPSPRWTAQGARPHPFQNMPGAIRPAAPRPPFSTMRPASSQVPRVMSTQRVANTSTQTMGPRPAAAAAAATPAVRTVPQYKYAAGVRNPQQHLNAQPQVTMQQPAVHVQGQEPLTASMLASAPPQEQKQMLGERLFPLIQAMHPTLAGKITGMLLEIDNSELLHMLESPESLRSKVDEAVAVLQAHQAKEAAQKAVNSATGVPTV
# [3] = target: DNA dC->dU-editing enzyme APOBEC-3A (Homo sapiens, UniProt P31941); experiment: Dose Response confirmation of small molecule APOBEC3A DNA Deaminase Inhibitors via a fluorescence-based single-stranded DNA deaminase assay. [Related pubchem assays (depositor defined):AID493011, AID493024]; type: functional
# Chain of DNA dC->dU-editing enzyme APOBEC-3A (P31941 whole entry): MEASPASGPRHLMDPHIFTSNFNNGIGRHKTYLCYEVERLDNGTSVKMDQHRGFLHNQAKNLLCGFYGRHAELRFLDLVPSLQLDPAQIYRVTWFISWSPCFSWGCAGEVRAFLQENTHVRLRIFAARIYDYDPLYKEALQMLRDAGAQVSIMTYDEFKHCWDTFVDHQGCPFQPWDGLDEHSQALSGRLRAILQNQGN
# [4] = target: DNA dC->dU-editing enzyme APOBEC-3G (Homo sapiens, UniProt Q9HC16); type: functional;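 further: Dose-response counterscreen measuring inhibition of APOBEC3G DNA deaminase activity, run while confirming APOBEC3A inhibitors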
# Chain of DNA dC->dU-editing enzyme APOBEC-3G (Q9HC16 whole entry): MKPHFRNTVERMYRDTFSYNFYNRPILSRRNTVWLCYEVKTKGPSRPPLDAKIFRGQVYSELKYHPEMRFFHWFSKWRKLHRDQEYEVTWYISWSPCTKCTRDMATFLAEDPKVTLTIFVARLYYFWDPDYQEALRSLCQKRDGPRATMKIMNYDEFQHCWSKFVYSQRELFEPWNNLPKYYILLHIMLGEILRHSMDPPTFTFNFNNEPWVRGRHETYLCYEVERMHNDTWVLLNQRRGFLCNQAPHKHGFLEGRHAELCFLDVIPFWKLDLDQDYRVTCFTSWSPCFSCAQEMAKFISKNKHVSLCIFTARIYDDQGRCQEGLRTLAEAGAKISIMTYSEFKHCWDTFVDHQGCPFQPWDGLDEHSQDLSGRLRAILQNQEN
# HEK293 [5] = experiment: Fluorescence-based counterscreen for potentiators or agonists of NPY-Y2: cell-based high-throughput dose response assay to identify inhibitors of cyclic nucleotide gated ion channel (CNGC) activity. In this assay, the parental HEK293 cell line transfected with a cyclic-nucleotide gated ion channel (CNGC)-based cAMP sensor is used to measure inhibition of isoproterenol-induced CNGC activity by test compound.; type: functional; details: Homo sapiens
# [6] = target: T1, Neuropeptide Y receptor type 2 (Homo sapiens, UniProt P49146); experiment: Fluorescence-based cell-based high-throughput dose response assay for agonists of NPY-Y2. [Related pubchem assays: 1703 (Screening assay (CNGC inhibitors).), 1359 (Screening assay (NPY-Y2 potentiators or agonists).), 1304 (Screening assay (NPY-Y1 potentiators or agonists).), 1710 (Screening assay (NPY-Y2 agonists).), 1791 (Summary AID.)]; type: functional
# T1 sequence (P49146 whole entry): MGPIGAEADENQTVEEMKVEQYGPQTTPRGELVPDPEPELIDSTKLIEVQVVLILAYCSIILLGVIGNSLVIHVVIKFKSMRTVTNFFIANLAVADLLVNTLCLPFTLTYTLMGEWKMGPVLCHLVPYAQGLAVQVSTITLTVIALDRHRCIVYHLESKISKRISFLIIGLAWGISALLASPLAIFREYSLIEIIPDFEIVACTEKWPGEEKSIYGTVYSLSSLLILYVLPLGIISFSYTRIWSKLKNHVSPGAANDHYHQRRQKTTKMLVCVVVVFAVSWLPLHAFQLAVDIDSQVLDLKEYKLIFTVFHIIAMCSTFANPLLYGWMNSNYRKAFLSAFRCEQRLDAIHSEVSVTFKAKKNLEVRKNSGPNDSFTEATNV
# [7] = target: T2, Neuropeptide Y receptor type 1 (Homo sapiens, UniProt P25929); experiment: Fluorescence-based counterscreen for agonists of NPY-Y2: cell-based high-throughput dose response assay for agonists of NPY-Y1.; type: functional
# T2 sequence (P25929 whole entry): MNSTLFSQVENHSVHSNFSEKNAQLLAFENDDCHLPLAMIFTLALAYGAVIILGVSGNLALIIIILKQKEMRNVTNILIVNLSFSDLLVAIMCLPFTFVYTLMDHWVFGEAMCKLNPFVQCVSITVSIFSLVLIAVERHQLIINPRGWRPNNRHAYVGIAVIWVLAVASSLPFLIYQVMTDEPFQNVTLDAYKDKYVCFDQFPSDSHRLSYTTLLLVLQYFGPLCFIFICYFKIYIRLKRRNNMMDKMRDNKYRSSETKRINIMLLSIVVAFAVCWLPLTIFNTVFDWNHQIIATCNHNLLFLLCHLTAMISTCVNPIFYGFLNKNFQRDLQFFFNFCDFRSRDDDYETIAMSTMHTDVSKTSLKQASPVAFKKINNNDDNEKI
# Tumor necrosis factor = Tumor necrosis factor (Homo sapiens, UniProt P01375); experiment: TNFa-triggered NF-kB activation inhibitors, SAR follow-up, cell-based, revised (AID 2337); type: functional
# Chain of Tumor necrosis factor (P01375 whole entry, the tested form may be a part): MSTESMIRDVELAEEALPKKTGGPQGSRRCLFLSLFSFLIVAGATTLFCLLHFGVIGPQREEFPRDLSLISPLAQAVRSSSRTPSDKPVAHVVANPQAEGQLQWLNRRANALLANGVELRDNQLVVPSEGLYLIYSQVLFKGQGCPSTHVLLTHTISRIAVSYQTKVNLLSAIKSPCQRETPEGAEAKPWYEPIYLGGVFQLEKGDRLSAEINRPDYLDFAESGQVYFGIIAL
# [8] = target: T3, Nucleotide-binding oligomerization domain-containing protein 1 (Homo sapiens, UniProt Q9Y239); experiment: NOD1 signaling inhibitors, SAR follow-up, revised (AID 2333); type: functional
# T3 sequence (Q9Y239 whole entry): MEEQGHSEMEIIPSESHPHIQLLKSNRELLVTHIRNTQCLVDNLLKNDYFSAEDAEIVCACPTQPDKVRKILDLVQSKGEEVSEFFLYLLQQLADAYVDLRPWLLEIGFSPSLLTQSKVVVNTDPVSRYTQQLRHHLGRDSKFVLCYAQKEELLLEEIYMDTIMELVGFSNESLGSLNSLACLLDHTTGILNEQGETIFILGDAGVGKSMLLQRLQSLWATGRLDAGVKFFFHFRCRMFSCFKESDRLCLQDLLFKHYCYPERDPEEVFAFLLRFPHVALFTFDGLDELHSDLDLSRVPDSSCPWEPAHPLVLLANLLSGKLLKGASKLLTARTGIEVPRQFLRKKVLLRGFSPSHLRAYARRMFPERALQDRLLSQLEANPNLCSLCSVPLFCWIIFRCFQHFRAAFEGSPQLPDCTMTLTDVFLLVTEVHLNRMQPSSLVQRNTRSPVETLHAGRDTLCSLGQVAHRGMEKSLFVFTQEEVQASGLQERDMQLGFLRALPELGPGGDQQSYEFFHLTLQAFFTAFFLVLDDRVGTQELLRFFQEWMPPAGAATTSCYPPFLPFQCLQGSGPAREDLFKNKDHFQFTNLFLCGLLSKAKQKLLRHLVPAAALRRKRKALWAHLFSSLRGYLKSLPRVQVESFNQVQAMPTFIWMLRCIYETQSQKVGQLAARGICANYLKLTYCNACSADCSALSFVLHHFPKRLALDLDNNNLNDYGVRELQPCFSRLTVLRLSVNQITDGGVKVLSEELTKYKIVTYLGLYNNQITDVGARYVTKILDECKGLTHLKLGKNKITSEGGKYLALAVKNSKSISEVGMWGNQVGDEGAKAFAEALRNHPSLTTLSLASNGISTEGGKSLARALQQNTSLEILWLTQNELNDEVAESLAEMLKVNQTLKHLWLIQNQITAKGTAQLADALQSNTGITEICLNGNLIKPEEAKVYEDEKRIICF
# [9] = target: Nucleotide-binding oligomerization domain-containing protein 2 (Homo sapiens, UniProt Q9HC29); experiment: PubChem AID 2334; type: functional
# Chain of Nucleotide-binding oligomerization domain-containing protein 2 (Q9HC29 whole entry, the tested form may be a part): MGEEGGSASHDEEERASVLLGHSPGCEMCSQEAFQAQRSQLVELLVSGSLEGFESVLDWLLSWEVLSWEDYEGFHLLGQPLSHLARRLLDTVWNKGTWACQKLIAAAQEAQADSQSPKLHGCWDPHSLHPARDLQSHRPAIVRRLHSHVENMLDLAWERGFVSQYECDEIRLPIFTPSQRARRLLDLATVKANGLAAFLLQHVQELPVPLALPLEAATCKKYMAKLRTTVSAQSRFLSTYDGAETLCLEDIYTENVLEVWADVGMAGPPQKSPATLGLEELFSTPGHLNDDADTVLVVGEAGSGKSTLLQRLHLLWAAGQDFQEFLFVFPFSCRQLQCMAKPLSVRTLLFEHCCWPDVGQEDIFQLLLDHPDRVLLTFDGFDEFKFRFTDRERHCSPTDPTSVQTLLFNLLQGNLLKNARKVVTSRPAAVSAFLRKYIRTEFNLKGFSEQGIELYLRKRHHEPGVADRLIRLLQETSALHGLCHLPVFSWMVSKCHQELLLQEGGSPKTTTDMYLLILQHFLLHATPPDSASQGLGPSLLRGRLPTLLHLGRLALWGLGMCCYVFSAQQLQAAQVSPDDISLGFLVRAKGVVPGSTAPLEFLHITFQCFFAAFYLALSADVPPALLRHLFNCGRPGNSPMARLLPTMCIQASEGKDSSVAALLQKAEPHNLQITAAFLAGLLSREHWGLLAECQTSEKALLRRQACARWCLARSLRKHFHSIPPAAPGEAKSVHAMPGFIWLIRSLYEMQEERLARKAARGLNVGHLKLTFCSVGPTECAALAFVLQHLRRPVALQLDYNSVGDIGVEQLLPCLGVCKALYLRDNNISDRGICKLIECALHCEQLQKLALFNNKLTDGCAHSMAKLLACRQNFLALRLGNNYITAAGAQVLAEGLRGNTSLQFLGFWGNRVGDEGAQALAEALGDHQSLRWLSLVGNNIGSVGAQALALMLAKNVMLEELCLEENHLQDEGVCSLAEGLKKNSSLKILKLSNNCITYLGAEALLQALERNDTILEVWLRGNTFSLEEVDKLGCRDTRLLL
# HEK293 [10] = experiment: cells; details: Homo sapiens
# [11] = target: Guanyl-specific ribonuclease T1 (Aspergillus oryzae (strain ATCC 42149 / RIB 40), UniProt P00651); experiment: RNase T1 inhibitors, dose response, counter-screen for TPT1 inhibitor project, biochemical, fluorescence polarization, 1536-well (AID 2167)
# Chain of Guanyl-specific ribonuclease T1 (P00651 whole entry): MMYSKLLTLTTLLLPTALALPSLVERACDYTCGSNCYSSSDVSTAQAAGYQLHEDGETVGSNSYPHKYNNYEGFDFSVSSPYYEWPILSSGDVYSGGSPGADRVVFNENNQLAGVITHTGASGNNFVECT
# [12] = target: Likely tRNA 2'-phosphotransferase (Candida albicans (strain SC5314 / ATCC MYA-2876) (Yeast), UniProt Q5A7N4); experiment: TPT1 tRNA phosphotransferase inhibitors, dose response, biochemical, fluorescence polarization (AID 2160)
# Chain of Likely tRNA 2'-phosphotransferase (Q5A7N4 whole entry): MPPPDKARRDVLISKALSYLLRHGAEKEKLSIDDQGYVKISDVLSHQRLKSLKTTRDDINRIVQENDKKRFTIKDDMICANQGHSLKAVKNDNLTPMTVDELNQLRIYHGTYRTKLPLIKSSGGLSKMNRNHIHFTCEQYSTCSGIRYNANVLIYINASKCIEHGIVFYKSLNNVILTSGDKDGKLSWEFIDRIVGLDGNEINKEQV
# X-box-binding protein 1 = X-box-binding protein 1 (Homo sapiens, UniProt P17861); type: functional, Cricetulus griseus;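 further: confirmatory dose-response counter-screen serving a CHOP assay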
# Chain of X-box-binding protein 1 (P17861 whole entry): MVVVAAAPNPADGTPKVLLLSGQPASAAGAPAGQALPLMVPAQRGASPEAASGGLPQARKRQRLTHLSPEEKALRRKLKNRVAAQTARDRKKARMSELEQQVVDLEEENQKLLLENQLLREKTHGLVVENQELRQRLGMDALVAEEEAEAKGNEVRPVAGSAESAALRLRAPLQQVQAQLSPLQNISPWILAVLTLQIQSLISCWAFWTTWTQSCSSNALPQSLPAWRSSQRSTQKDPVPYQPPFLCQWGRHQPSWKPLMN
structure (smiles),measurement,setting,value
CC[n+]1c(C)n(CC(O)COCC2CC=CCC2)c2ccccc21 (stereo not given),IC50,[1],92.2 µM (active)
same,IC50,[2],5.47 µM (active)
same,IC50,[3],2.12 µM (active)
same,IC50,[4],3.86 µM (active)
COC(=O)c1ccc(NC(=O)CSc2nnc(C(C)NC(=O)c3ccccc3Cl)n2C)cc1 (stereo not given),EC50,HEK293 [5],12.7 µM (not active)
same,EC50,[6],19.8 µM (not active)
same,EC50,[7],26.4 µM (not active)
COC(=O)c1scc(S(=O)(=O)C(C)C)c1NN=C(C#N)C(=O)c1ccc(Cl)cc1,IC50,Tumor necrosis factor,10.9 µM (active)
same,IC50,[8],5.43 µM (active)
same,IC50,[9],5.88 µM (active)
same,IC50,HEK293 [10],> 20 µM (inactive)
Cc1ccc(N2C(=O)NC(=O)/C(=C\c3ccc([N+](=O)[O-])o3)C2=O)cc1,IC50,[11],> 55.7 µM (not active)
same,IC50,[12],5.55 µM (active)
C[N+]1(CCOS(=O)C23CC4CC(CC(C4)C2)C3)CCOCC1 (stereo not given),IC50,[1],> 100 µM (inactive)
same,IC50,[2],11.8 µM (active)
CCC(=O)N1CCc2cc(S(=O)(=O)N3CCN(c4ccc(C(C)=O)cc4)CC3)ccc21,IC50,Tumor necrosis factor,> 20 µM (inactive)
same,IC50,[8],> 20 µM (inactive)
same,IC50,[9],> 20 µM (inactive)
same,IC50,HEK293 [10],> 20 µM (inactive)
Oc1ccc(N=Nc2cccc(C(F)(F)F)c2)cc1/C=N/c1ccc(N2CCOCC2)cc1,Absolute IC50 (XBP1),X-box-binding protein 1,10 µM
